# In patent publication US6239130A, “Phosphodiesterase 4-inhibiting diazepinoindolones” (Warner-Lambert Company, priority 1997, dated 2001):
# Test system: PDE4 enzyme of human origin
# Experiment: PDE4-inhibiting activity on an enzyme preparation obtained from the U937 cell line
# Format: biochemical
# Experimental: In the case of the PDE4 enzymes, this value is compared with that of rolipram, a specific PDE4 inhibitor. […] Measurement of the enzyme activity of the different types of PDE, and especially of the PDE4 enzymes, is then carried out according to a method adapted from W. J. Thompson, ibidem.
row,SMILES,IC50 [nM]
1,"Cc1cc2c3c(c1)C(c1ccccc1)=NC(n1c(C)nc4cc(C(=O)OCCN5CCOCC5)ccc4c1=O)C(=O)N3CC2 (centres unmarked) [Example 10, 2-(4-morpholinyl)ethyl 2-methyl-3-(9-methyl-4-oxo-1-phenyl-3,4,6,7-tetrahydro-[1,4]diazepino-[6,7,1-hi]indol-3-yl)-4-oxo-3,4-dihydroquinazoline-7-carboxylate]",183
2,"CC(=O)OCCOC(=O)c1ccc2c(=O)n(C3N=C(c4ccccc4)c4cc(C)cc5c4N(CC5)C3=O)c(C)nc2c1 (centres unmarked) [Example 10A, 2-acetoxyethyl 2-methyl-3-(9-methyl-4-oxo-1-phenyl-3,4,6,7-tetrahydro[1,4]diazepino[6,7,1-hi]indol-3-yl)-4-oxo-3,4dihydroquinazoline-7-carboxylate]",108
3,"COCCOC(=O)c1ccc2c(=O)n(C3N=C(c4ccccc4)c4cc(C)cc5c4N(CC5)C3=O)c(C)nc2c1 (centres unmarked) [Example 10B, 2-Methoxyethyl 2-methyl-3-(9-methyl-4-oxo-1-phenyl-3,4,6,7-tetrahydro[1,4]diazepino[6,7,1-hi]indol-3-yl)-4-oxo-3,4-dihydroquinazoline-7-carboxylate]",155
4,"Cc1cc2c3c(c1)C(c1ccccc1)=NC(n1c(C)nc4cc(C(=O)OCCO)ccc4c1=O)C(=O)N3CC2 (centres unmarked) [Example 10C, 2-Hydroxyethyl 2-methyl-3-(9-methyl-4-oxo-1-phenyl-3,4,6,7-tetrahydro[1,4]diazepino[6,7,1-hi]indol-3-yl)-4-oxo-3,4-dihydroquinazoline-7-carboxylate]",81
5,"Cc1cc2c3c(c1)C(c1ccccc1)=NC(n1c(C)nc4cc(C(=O)OC[C@@H](O)CO)ccc4c1=O)C(=O)N3CC2 (stereo partly drawn) [Example 10D, 1-(2S)-glyceryl 2-methyl-3-(9-methyl-4-oxo-1-phenyl-3,4,6,7-tetrahydro[1,4]diazepino[6,7,1-hi]indol-3-yl)-4-oxo-3,4-dihydroquinazoline-7-carboxylate]",42
6,"Cc1cc2c3c(c1)C(c1ccccc1)=NC(n1c(C)nc4cc(C(=O)OCC(O)CN5CCOCC5)ccc4c1=O)C(=O)N3CC2 (centres unmarked) [Example 10E, 2-hydroxy-3-morpholin-4-ylpropyl 2-methyl-3-(9-methyl-4-oxo-1-phenyl-3,4,6,7-tetrahydro[1,4]diazepino[6,7,1-hi]indol-3-yl)-4-oxo-3,4-dihydroquinazoline-7-carboxylate]",75
7,"Cc1cc2c3c(c1)C(c1ccccc1)=NC(n1c(C)nc4cc(CO)ccc4c1=O)C(=O)N3CC2 (centres unmarked) [Example 11, 3-(7-hydroxymethyl-2-methyl-4-oxo-4H-quinazolin-3-yl)-9-methyl-1-phenyl-6,7-dihydro-3H-[1,4]diazepino[6,7,1-hi]indol-4-one]",79
8,Cc1cc2c3c(c1)C(c1ccccc1)=N[C@@H](n1c(C)nc4cccc(F)c4c1=O)C(=O)N3CC2 [Example 12],88
9,"Cc1cc2c3c(c1)C(c1ccccc1)=NC(n1c(C)nc4cccc(Cl)c4c1=O)C(=O)N3CC2 (centres unmarked) [Example 13, 3-(5-chloro-2-methyl-4-oxo-4H-quinazolin-3-yl)-9-methyl-1-phenyl-6,7-dihydro-3H-[1,4]diazepino-[6,7,1-hi]indol-4-one]",83
10,"CCOC(=O)c1nc2ccccc2c(=O)n1C1N=C(c2ccccc2)c2cc(C)cc3c2N(CC3)C1=O (centres unmarked) [Example 14, ethyl 3-(9-methyl-4-oxo-1-phenyl-3,4,6,7-tetrahydro-[1,4]diazepino[6,7,1-hi]indol-3-yl)-4-oxo-3,4-dihydroquinazoline-2-carboxylate]",310
11,"CCOC(=O)c1nc2cccc(Cl)c2c(=O)n1C1N=C(c2ccccc2)c2cc(C)cc3c2N(CC3)C1=O (centres unmarked) [Example 15, Ethyl 5-chloro-3-(9-methyl-4-oxo-1-phenyl-3,4,6,7-tetrahydro-[1,4]diazepino[6,7,1-hi]indol-3-yl)-4oxo-3,4-dihydroquinazoline-2-carboxylate]",82
12,"CCOC(=O)Cc1nc2ccccc2c(=O)n1C1N=C(c2ccccc2)c2cc(C)cc3c2N(CC3)C1=O (centres unmarked) [Example 16, Ethyl [3-(9-methyl-4-oxo-1-phenyl-3,4,6,7-tetrahydro-[1,4]diazepino[6,7,1-hi]indol-3-yl)-4-oxo-3,4-dihydro-2-quinazolinyl]acetate]",260
13,"COCc1nc2ccccc2c(=O)n1C1N=C(c2ccccc2)c2cc(C)cc3c2N(CC3)C1=O (centres unmarked) [Example 17A, 9-Methyl-3-(2-methyloxymethyl-4-oxo-4H-quinazolin-3-yl)-1-phenyl-6,7-dihydro-3H-[1,4]diazepino[6,7,1-hi]indol-4-one]",137
14,"Cc1cc2c3c(c1)C(c1ccccc1)=NC(n1c(CO)nc4ccccc4c1=O)C(=O)N3CC2 (centres unmarked) [Example 17B, 9-Methyl-3-(2-hydroxymethyl-4-oxo-4H-quinazolin-3-yl)-1-phenyl-6,7-dihydro-3H-[1,4]diazepino[6,7,1-hi]indol-4-one]",221
15,"Cc1cc2c3c(c1)C(c1ccccc1)=NC(n1c(COC(=O)CCC(=O)O)nc4ccccc4c1=O)C(=O)N3CC2 (centres unmarked) [Example 17C, [3-(9-Methyl-4-oxo-1-phenyl-3,4,6,7-tetrahydro-[1,4]diazepino[6,7,1-hi]indol-3-yl)-4-oxo-3,4-dihydroquinazolin-2-yl]methyl hydrogen succinate]",339
16,"COCCOCCOCC(=O)OCc1nc2ccccc2c(=O)n1C1N=C(c2ccccc2)c2cc(C)cc3c2N(CC3)C1=O (centres unmarked) [Example 17D, [3-(9-Methyl-4-oxo-1-phenyl-3,4,6,7-tetrahydro-[1,4]diazepino[6,7,1-hi]iondol-3-yl)-4-oxo-3,4-dihydroquinazolin-2-yl]methanol [2-(2-methoxyethoxy)ethoxy]acetate]",286
17,"Cc1cc2c3c(c1)C(c1ccccc1)=NC(n1c(COC(=O)CCC(=O)NCCN4CCOCC4)nc4ccccc4c1=O)C(=O)N3CC2 (centres unmarked) [Example 17E, 3-(9-Methyl-4-oxo-1-phenyl-3,4,6,7-tetrahydro-[1,4]diazepino [6,7,1-hi]indol-3-yl)-4-oxo-3,4-dihydroquinazolin-2-ylmethyl N-(2-morpholin-4-ylethyl)succinamate]",222
18,"Cc1cc2c3c(c1)C(c1ccccc1)=NC(n1c(COC(=O)CCC(=O)OCCN4CCOCC4)nc4ccccc4c1=O)C(=O)N3CC2 (centres unmarked) [Example 17F, 3-(9-Methyl-4-oxo-1-phenyl-3,4,6,7-tetrahydro-[1,4]diazepino[6,7,1-hi]indol-3-yl)-4-oxo-3,4-dihydroquinazolin-2-ylmethyl 2-morpholin-4-ylethyl succinnate]",147
19,"COC(=O)[C@H](CCCCNC(=O)OC(C)(C)C)NC(=O)CCC(=O)OCc1nc2ccccc2c(=O)n1C1N=C(c2ccccc2)c2cc(C)cc3c2N(CC3)C1=O (some centres unmarked) [Example 17G, Methyl 6-t-butoxycarbonylamino-2-{3-[3-(9-methyl-4-oxo-1-phenyl-3,4,6,7-tetrahydro-[1,4]diazepino[6,7,1-hi]indol-3-yl)-4-oxo-3,4-dihydroquinazolin-2-ylmethoxycarbonyl]propionylamino}hexanoate]",516
20,"CCOC(=O)CCc1nc2ccccc2c(=O)n1C1N=C(c2ccccc2)c2cc(C)cc3c2N(CC3)C1=O (centres unmarked) [Example 17H, Ethyl 3-[3-(9-methyl 4oxo-1-phenyl-3,4,6,7-tetrahydro[1,4]diazepino[6,7,1-hi]indol-3-yl)-4-oxo-3,4-dihydroquinazolin-2-yl]propanoate]",184
